The test system of this assay is Pseudomonas aeruginosa PAM1001. As to the kind of experiment: microbe, parasite or virus in culture. Particulars: for inhibition at 2.5 µg/mL / inhibition at 5 µg/mL / inhibition at 10 µg/mL / inhibition at 20 µg/mL / inhibition at 40 µg/mL: Pseudomonas aeruginosa, PAM1001, read-out: Inhibition (%) of growth of P. aeruginosa PAM1001; for Inhibition (%) of growth of P. aeruginosa PAM1001: Levofloxacin 0.25 μg/mL. It is filed as cell-based. On the procedure:
For compounds labeled with the prefix ‘D’, potentiation is measured by inhibition of growth of Pseudomonas aeruginosa PAM1001 at varying concentrations of efflux pump inhibitors (EPIs) in the presence of levofloxacin (0.25 microg/mL). Bacteria are grown in Mueller Hinton Broth (MHB, Difco) with an initial inoculum of 1×10^6 CFU/mL. Kinetics of bacterial growth is monitored, during 18 h of incubation at 37° C., by measurement of the culture absorbance at 650 nm using a 96-well plate spectrophotometer (SpectraMax, Molecular Devices). The inhibitory effect of EPIs is expressed as a percentage of growth inhibition compared to a control bacterial culture grown in the presence of 0.25 microg/mL levofloxacin but without EPIs.

The mark [1] stands for this setting: Concentration of Compound 2.5 μg/mL.
[2] abbreviates: Concentration of Compound 5 μg/mL.
Where [3] appears, read: Concentration of Compound 10 μg/mL.
The mark [4] stands for this setting: Concentration of Compound 20 μg/mL.
The mark [5] stands for this setting: Concentration of Compound 40 μg/mL.

This note sets out measurements from US6399629B1, “Efflux pump inhibitors” (priority 1998, dated 2002).

Structures can show the parent of a compound that is named as a salt.

A word on the inhibition: it is the change of the read-out against control, counted positive when it falls. On to `N[C@H]1CCN[C@H](C(=O)N2C[C@H](NC(=O)[C@H](O)CCc3ccccc3)C[C@H]2C(=O)Nc2cnc3ccccc3c2)C1` (mixture of isomers) [Compound D112, trans-4-Amino-L-Pipecolinoyl-trans-4-((R)-2-Hydroxy-4-Phenylbutyrylamino)-L-Proline 3-Quinolylamide Trihydrochloride], for which the inhibition at 2.5 µg/mL turned out to be 20%, the inhibition at 5 µg/mL amounted to 20%, the inhibition at 10 µg/mL amounted to 17% and the inhibition at 20 µg/mL came to 58%. In addition, the inhibition at 40 µg/mL amounted to 101%.

As to `N[C@@H]1CCN[C@H](C(=O)N2C[C@H](NC(=O)[C@H](O)CCc3ccccc3)C[C@H]2C(=O)Nc2cnc3ccccc3c2)C1` (mixture of isomers) [Compound D113, cis-4-Amino-L-Pipecolinoyl-trans-4-((R)-2-Hydroxy-4-Phenylbutyrylamino)-L-Proline 3-Quinolylamide Trihydrochloride], the inhibition at 2.5 µg/mL is 20%, the inhibition at 5 µg/mL is 32%, the inhibition at 10 µg/mL was found to be 15% and the inhibition at 20 µg/mL was 15%. The inhibition at 40 µg/mL worked out at 100%.

On to `NCC(=O)N[C@H]1CCN[C@H](C(=O)N2C[C@H](NC(=O)[C@H](O)CCc3ccccc3)C[C@H]2C(=O)Nc2cnc3ccccc3c2)C1` (mixture of isomers) [Compound D114, trans-4-Glycylamino-L-Pipecolinoyl-trans-4-((R)-2-Hydroxy-4-Phenylbutyrylamino)-L-Proline 3-Quinolylamide Trihydrochloride], for which the inhibition at 2.5 µg/mL was 20%, the inhibition at 5 µg/mL came out at 22%, the inhibition at 10 µg/mL was found to be 90% and the inhibition at 20 µg/mL was determined as 100%. Also, the inhibition at 40 µg/mL is 100%.

As to `CNCC(=O)N[C@H]1CN[C@H](C(=O)N2C[C@H](NC(=O)[C@H](O)CCc3ccccc3)C[C@H]2C(=O)Nc2cnc3ccccc3c2)C1.Cl.Cl.Cl` (relative stereo) [Compound D106], the “Inhibition (%) of growth of P. aeruginosa PAM1001” value runs as follows: under setting [1], 19%; under setting [2], 19%; under setting [3], 20%; under setting [4], 19%; under setting [5], 100%.

Take `Cl.Cl.Cl.NC[C@H](O)C(=O)N[C@H]1CN[C@H](C(=O)N2C[C@H](NC(=O)[C@H](O)CCc3ccccc3)C[C@H]2C(=O)Nc2cnc3ccccc3c2)C1` (relative stereo) [Compound D108, trans-4-((S)-3-Amino-2-Hydroxypropionylamino)-L-Prolyl-trans-4-((R)-2-Hydroxy-4-Phenylbutyrylamino)-L-Proline 3-Quinolylamide Trihydrochlonde]: the “Inhibition (%) of growth of P. aeruginosa PAM1001” value came out at 23% under setting [1]; 22% under setting [2]; 22% under setting [3]; 100% under setting [4]; 101% under setting [5].

`Cl.Cl.Cl.NCC(=O)N[C@@H]1CCN[C@H](C(=O)N2C[C@H](NC(=O)[C@H](O)CCc3ccccc3)C[C@H]2C(=O)Nc2cnc3ccccc3c2)C1` (relative stereo) [Compound D115, cis-4-Glycylamino-L-Pipecolinoyl-trans-4-((R)-2-Hydroxy-4-Phenylbutyrylamino)-L-Profine 3-Quinolylamide Trihydrochloride]: the “Inhibition (%) of growth of P. aeruginosa PAM1001” value is, setting by setting: under setting [1], 15%; under setting [2], 16%; under setting [3], 8%; under setting [4], 50%; under setting [5], 100%.

Turning to `Cl.Cl.NCC(=O)N[C@H]1CN[C@H](C(=O)NCc2ccc(-c3ccccc3)cc2)C1` (relative stereo) [Compound D316, trans-4-Glycylmino-L-Proline 4-Phenylbenzylamide Dihydrochloride], the “Inhibition (%) of growth of P. aeruginosa PAM1001” value is, setting by setting: under setting [1], 20%; under setting [2], 20%; under setting [3], 21%; under setting [4], 82%; under setting [5], 100%.

Regarding `Cl.Cl.Cl.NCC(=O)N[C@H]1CN[C@H](C(=O)Nc2nc(-c3ccccc3)cs2)C1` (relative stereo) [Compound D326, trans 4GlycylaminoL-Proline 4-Phenylthiazol-2-ylamide Trihydrochloride], the “Inhibition (%) of growth of P. aeruginosa PAM1001” value reads like this: under setting [1], 18%; under setting [2], 19%; under setting [3], 17%; under setting [4], 13%; under setting [5], 74%.

On to `Cl.Cl.Cl.NCC(=O)N[C@H]1CN[C@H](C(=O)Nc2cnc3ccc(Cc4ccccc4)cc3c2)C1` (relative stereo) [Compound D327, trans-4-Glycylamino-L-Proline 3-(6-Benzyl)quinolyl-amide Trihydrochloride], for which the “Inhibition (%) of growth of P. aeruginosa PAM1001” value was found to be 20% under setting [1]; 19% under setting [2]; 99% under setting [3]; 100% under setting [4]; 100% under setting [5].

On to `Cl.Cl.NCC(=O)N[C@H]1CN[C@H](C(=O)N2CCN(c3ccc(Cl)cc3)CC2)C1` (relative stereo) [Compound D403, 1-(N-trans-4-Glycylamino-L-Prolyl)-4-(4-Chlorophenyl)piperazine Dihydrochloride], for which the “Inhibition (%) of growth of P. aeruginosa PAM1001” value reads like this: under setting [1], 25%; under setting [2], 22%; under setting [3], 22%; under setting [4], 4%; under setting [5], 61%.

With `NCCC1CN[C@H](C(=O)N2C[C@H](NC(=O)[C@H](O)CCc3ccccc3)C[C@H]2C(=O)Nc2cnc3ccccc3c2)C1` (stereo partly drawn) [Compound D110, 4-(2-Aminoethyl)-Prolyl-trans-4-((R)-2-Hydroxy-4-Phenylbutyrylamino)-L-Proline 3-Quinolylamide Trihydrochloride], the inhibition at 2.5 µg/mL was 20%, the inhibition at 5 µg/mL worked out at 20%, the inhibition at 10 µg/mL came to 100% and the inhibition at 20 µg/mL stood at 100%. Moreover, the inhibition at 40 µg/mL was found to be 100%.

As to `NCCC[C@@H](N)C(=O)N1C[C@H](NC(=O)CCCc2ccccc2)C[C@H]1C(=O)Nc1ccc2c(c1)CCC2` [Compound D121, D-Ornithyl-trans-4-(4-Phenylbutanoyl)amino-L-Proline 5-Indanylamide], the inhibition at 2.5 µg/mL turned out to be 15%, the inhibition at 5 µg/mL was 99%, the inhibition at 10 µg/mL amounted to 100% and the inhibition at 20 µg/mL was 100%. The inhibition at 40 µg/mL amounted to 100%.

Turning to `NCCC[C@H](N)C(=O)N1C[C@@H](NC(=O)CCCc2ccccc2)C[C@H]1C(=O)Nc1ccc2c(c1)CCC2` [Compound D122, L-Ornithyl-cis-4-(4-phenylbutanoyl)amino-L-proline 5-Indanylamide], the inhibition at 2.5 µg/mL worked out at 16%, the inhibition at 5 µg/mL was found to be 99%, the inhibition at 10 µg/mL came to 100% and the inhibition at 20 µg/mL was determined as 100%. For the same compound, the inhibition at 40 µg/mL was 99%.

`NCCC[C@@H](N)C(=O)N1C[C@@H](NC(=O)CCCc2ccccc2)C[C@H]1C(=O)Nc1ccc2c(c1)CCC2` [Compound D124, D-Ornithylcis-4-(4-Phenylbutanoyl)amino-L-Proline 5-Indanylamide Dihydrochloride]: the inhibition at 2.5 µg/mL was found to be 19%, the inhibition at 5 µg/mL came out at 100%, the inhibition at 10 µg/mL was 100% and the inhibition at 20 µg/mL is 100%. The inhibition at 40 µg/mL amounted to 100%.

`NCC(O)C[C@H](N)C(=O)N1C[C@H](NC(=O)CCCc2ccccc2)C[C@H]1C(=O)Nc1ccc2c(c1)CCC2` (stereo partly drawn) [Compound D125, 4-Hydroxy-L-Ornithyl-trans-4-(4-Phenylbutanoyl)amino-L-Proline 5-Indanylamide Dihydrochloride]: the inhibition at 2.5 µg/mL amounted to 15%, the inhibition at 5 µg/mL amounted to 100%, the inhibition at 10 µg/mL was found to be 100% and the inhibition at 20 µg/mL came out at 100%. In addition, the inhibition at 40 µg/mL worked out at 100%.

For the compound `NCC(=O)N[C@H]1CN[C@H](C(=O)N[C@H](CCc2ccccc2)C(=O)Nc2cnc3ccccc3c2)C1` [Compound D201, trans-4-Glycylamino-L-Prolyl-D-Homophenylalanine 3-Quinolylamide Trihydrochloride], the inhibition at 2.5 µg/mL came out at 17%, the inhibition at 5 µg/mL amounted to 9%, the inhibition at 10 µg/mL amounted to 99% and the inhibition at 20 µg/mL amounted to 100%. Moreover, the inhibition at 40 µg/mL was 100%.

On to `N[C@H]1CN[C@H](C(=O)N[C@H](CCc2ccccc2)C(=O)Nc2cnc3ccccc3c2)C1` [Compound D202, trans-4-Amino-L-Prolyl-D-Homophenylalanine 3-Quinolylamide Trihydrochloride], for which the inhibition at 20 µg/mL is 21% and the inhibition at 40 µg/mL worked out at 86%.
